Blank lines part the entries; values can stand above or below the compound they belong to.
What was measured:
[1] = Stability in aqueous solution by analytical RP-HPLC; format: physicochemical
Experimental: The stability of the compounds in aqueous solution was monitored over several hours using analytical RP-HPLC. […] Thus, the hydrolysis can be clearly attributed to the maleimide moiety.
(§1) RP-HPLC stability and binding studies
(§2) To determine the stability, especially of the maleimide-function, 0.5 mM solutions of the complexes were prepared in triple distilled water and measured repeatedly over several hours. For determination of the binding rate towards human serum albumin (HSA), freshly prepared 1 mM aqueous solutions of a compound and HSA were mixed 1:1 and also measured repeatedly over several hours. All studies were carried out using a reversed-phase Waters XBridge C18 column on a Dionex Summit System. Milli-Q water, containing 0.1% formic acid, and methanol were used as eluents and a standard gradient from 5–95% methanol in 20 minutes was chosen. The autosampler, where the samples were incubated, was temperature controlled at 20°C and the column at 25°C. The loss of the complexes was monitored via UV-VIS detector at 225 nm and evaluated by the decrease of the compound […]
(§3) For sample preparation compounds 7– 14 were incubated separately in FCS. […] The samples were then stored in the autosampler at 37°C for 21 h and analyzed

[2] = target: T1, human serum albumin (HSA) (Homo sapiens, UniProt P02768); assay: Albumin-binding rate by RP-HPLC (decrease of unbound drug peak area); settings: 1 eq. of HSA used
T1 construct: purchased Sigma Aldrich
Experimental: Next, the binding of the maleimide-functionalized complexes to the thiol group of human serum albumin (HSA) was investigated. Therefore, compounds 7–8 and 11–12 were incubated with HSA and the decrease of the peak area of the unbound drug was monitored (Fig. 2B, Table S19 ^†).
as §1, §2, §3

[3] = target: T2, albumin fraction of fetal calf serum (Bos taurus, UniProt P02769); assay: Binding studies in fetal calf serum by SEC-ICP-MS; format: in vitro ADME; settings: 37 °C
T2 construct: from tissue; host or cells: fetal calf serum (whole serum)
Experimental: To ascertain the actual binding target, the binding rate and the stability of the formed species under biological conditions, the compounds were incubated with fetal calf serum at 37 °C and sulfur- and platinum-containing (macro)molecules were measured with size exclusion chromatography inductively coupled plasma mass spectrometry (SEC-ICP-MS) over 21 h. Already at the first scan (∼5–10 min after incubation) ∼50% of the maleimide-containing compounds 7–8 and 11–12 were bound to the albumin fraction at 7.6 min (see Table S11 ^† for the corresponding size ladder). At the next time point after 140 min, in all cases, >80% of the drug was bound to albumin. […] Thus, the fast as well as specific binding to serum albumin was verified. […]
To determine the stability, especially of the maleimide-function, 0.5 mM solutions of the complexes were prepared in triple distilled water and measured repeatedly over several hours. For determination of the binding rate towards human serum albumin (HSA), freshly prepared 1 mM aqueous solutions of a compound and HSA were mixed 1:1 and also measured repeatedly over several hours. […] The loss of the complexes was monitored via UV-VIS detector at 225 nm and evaluated by the decrease of the compound […]
For sample preparation compounds 7– 14 were incubated separately in FCS. […] The samples were then stored in the autosampler at 37°C for 21 h and analyzed […]

[4] = Reduction with ascorbic acid monitored by RP-HPLC and 1H-NMR; format: physicochemical; settings: 1 mM complex, 10 equivalents ascorbic acid, phosphate buffer pH = 7.4
Experimental: As one explanation of the observed differences between the compounds might be altered reducibility, we investigated the reduction rate in the presence of ascorbic acid in phosphate-buffered solution at pH = 7.4 using NMR spectroscopy and HPLC measurements. To reduce the number of additional signals from hydrolyzed maleimide species in the spectra, only the succinimide-functionalized compounds 9–10 and 13–14 were evaluated in these experiments (Fig. 7 and S6 ^†). For both NMR and HPLC measurements, the same complex concentrations (1 mM) and 10 equivalents ascorbic acid were used. […] Overall, there is a strong correlation between the reduction data and the in vivo activity. As such, the fast reduction of the cisplatin derivatives correlates with the low in vivo activity of 8 and relatively low plasma levels after 24 h. […]
1 mM solutions of the succinimide derivatives 9– 10 and 13–14 in 100 mM phosphate buffer (pH=7.4) were freshly prepared, mixed with 10 mM solutions of ascorbic acid in 100 mM phosphate buffer (pH=7.4) and measured by RP-HPLC every hour for up to 24 h. […] The reduction of the compound was monitored via UV-VIS detector at 225 nm and evaluated by the decrease of the initial compound peak area. […]

CT-26 tumors = assay: Histological evaluation (H/E) of apoptotic and mitotic cell fractions in CT-26 tumors; format: in vivo, BALB/c mice; settings: tumors of male mice, day 12, H/E stain, counting
Experimental: In order to better understand the observed differences in the activity of our compound panel, in a second experiment male CT-26-bearing animals were sacrificed on day 12 (24 h after the last treatment) and paraffin-embedded tumors were evaluated by H/E stain. […] In addition, as depicted in Fig. 5, the tumors of mice treated with 12 were clearly smaller than the ones of the other treatment groups. […] Furthermore, the histological evaluation of tumor material was only possible for 3 animals because the fourth mouse already experienced a complete remission at time of section (which means that the best responding animal was not available for evaluation). […]
mice was performed only with the endpoint overall survival. For cisplatin and 8, the […]
was performed. […]
experimental group contained four animals). Tumor volumes were calculated as described in the experimental part. […]
Figure S5: Apoptosis and mitosis levels in tumors after the treatment with compound 8, 11 and 12 in comparison to cis- and oxaliplatin: CT-26 cells were injected subcutaneously into the right flank of male BALB/c mice. […] The fractions of apoptotic and mitotic cells were evaluated by counting (4 pictures per sample, at least 300 cells per picture were counted). […]
The statistical significance was calculated by One-Way Anova and is indicated with asterisks (* P < 0.05; ** P < 0.01; *** P < 0.001).

[5] = tested on: subcutaneous CT-26 tumors
Experimental: Mice were treated twice a week (Monday and Thursday) i.v. with concentrations equimolar to 9 mg kg^–1 oxaliplatin (each experimental group contained four animals). […] The experiment was performed twice with two different endpoints: overall survival vs. tissue collection 12 days after the first treatment. […] Data are means ± SEM.
CT-26 cells (5x105 in serum-free medium) were injected subcutaneously into the right flank
of Balb/c mice (gender is indicated in the respective figure). Animals were treated with the
indicated oxaliplatin-releasing drugs at concentrations equimolar to 9 mg/kg oxaliplatin (i.v.;
12 was dissolved in 0.9% NaCl solution, 11 in 10% propylene glycol/0.9% NaCl, and
oxaliplatin in 5% glucose solution according to the clinical protocol) twice a week (Mondays
and Thursdays). In case of cisplatin-releasing prodrugs, a dose equimolar to 3 mg/kg cisplatin
was applied twice a week. For all experiments four animals per treatment group were used.
Animals were controlled for distress development every day and tumor size was assessed
regularly by caliper measurement. Tumor volume was calculated using the formula: (length ×
width2). The experiments with oxaliplatin, 11 and 12 in male mice were performed twice
with two different endpoints: 1) overall survival and 2) collection of organ and tumor
In the second experiments, tumors were
formalin-fixed and paraffin-embedded.
Results were analyzed and illustrated and statistical analyses performed (as indicated) with
GraphPad Prism (GraphPad Software version 5,San Diego, CA).

[6] = Serum platinum levels 24 h after single treatment (SEC-ICP-MS and FI-ICP-MS); format: in vivo, BALB/c mice
Text: It is well accepted that albumin targeting distinctly impacts on the plasma half-life time as well as tissue distribution.[36] Especially, the enhanced accumulation due to the EPR effect makes this form of tumor-targeting very interesting for the development of novel cancer therapeutics.[13] As our novel compounds have a double prodrug nature (albumin-binding and the need of activation by reduction), we were interested in the drug tissue distribution after treatment. To this end, male CT-26-bearing BALB/c mice were treated once with our compounds followed by sample collection 24 h later. […] In accordance to many other non-targeted drugs,[37]–[40] for both platinum(II) drugs the intratumoral drug levels were distinctly lower than in the liver and kidney (which usually have very high drug levels due to their important function in metabolism and excretion).
Mice were treated once i.v. with 9 mg kg^–1 oxaliplatin and the equimolar concentrations in the case of 11 and 12 as well as 3 mg kg^–1 cisplatin and an equimolar dose in the case of 8. After 24 h, animals were anesthetized, sacrificed by heart puncture and tumor, liver, kidney tissue as well as serum were collected. Each experimental group contained four animals. (A) Organ platinum-distribution measured by ICP-MS. Data are expressed as mean ± standard deviation. (B) Platinum-SEC-ICP-MS measurements of serum samples (C) serum platinum levels measured by FI-ICP-MS. Data are expressed as mean ± standard deviation.
Table S10 : Column recovery.
Drug Conc. (µM) SD Column SD
A protein/amino acid mix was prepared to assess the separation performance of the applied SEC-HPLC setup. The mixture contained HSA, myoglobin, GSSG, and methionine. It has to be mentioned that HSA is forming dimers over time. However, the separation of the monomer and the dimer of HSA cannot be resolved with this chromatographic column.
Table S11 : Resulting size ladder.
SEC-ICP-MS measurements of in vivo serum samples
The ICP-QMS iCAP Thermo Scientific (Bremen, Germany) was used. Oxygen (purity 4.5, Linde Gas GmbH, Vienna, Austria) was used as reaction gas. The ICP-MS operation parameters are […]
Table S12 : ICP-MS operation parameters.
Nebulizer gas flow: 1.01 L/min
Aux. gas flow: 0.80 L/min
Plasma gas flow: 14 L/min
Reaction gas (oxygen) flow: 0.370 mL/min
As HPLC system a Thermo Scientific Transcend HPLC system (San Jose, CA, USA) was coupled to the ICP-QMS iCAP Thermo Scientific. Qtegra Intelligent Scientific Data Solution (version 2.4.1800.33) was employed for the data treatment. HPLC chromatographic conditions are […]
Table S13 : Chromatographic conditions.
HPLC column: BioBasic SEC-60 A, 4.6x250 mm, 5µm.
Eluent: 50 mM CH3COONH4, pH = 6.0.
Column Temperature: Room temperature
Autosampler Temperature: 37°C […]

[7] = female BALB/c mice, 9 mg kg^–1 i.v. twice a week

T2 sequence (P02769 25-607): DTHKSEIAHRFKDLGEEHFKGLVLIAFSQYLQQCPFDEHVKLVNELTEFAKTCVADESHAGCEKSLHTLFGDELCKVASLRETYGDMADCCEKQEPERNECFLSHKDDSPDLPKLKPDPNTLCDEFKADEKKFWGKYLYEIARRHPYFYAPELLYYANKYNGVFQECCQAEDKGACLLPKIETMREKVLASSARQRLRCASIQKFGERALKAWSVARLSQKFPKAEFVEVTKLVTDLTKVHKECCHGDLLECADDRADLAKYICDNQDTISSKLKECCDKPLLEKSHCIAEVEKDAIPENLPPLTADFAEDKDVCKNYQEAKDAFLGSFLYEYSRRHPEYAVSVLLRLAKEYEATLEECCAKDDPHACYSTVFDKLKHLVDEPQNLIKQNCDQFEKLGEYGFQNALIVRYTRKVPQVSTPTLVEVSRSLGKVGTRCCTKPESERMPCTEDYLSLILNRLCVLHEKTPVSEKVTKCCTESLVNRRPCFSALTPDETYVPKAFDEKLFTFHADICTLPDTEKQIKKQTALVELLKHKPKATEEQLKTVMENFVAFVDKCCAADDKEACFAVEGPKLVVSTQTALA
T1 sequence (P02768 25-609): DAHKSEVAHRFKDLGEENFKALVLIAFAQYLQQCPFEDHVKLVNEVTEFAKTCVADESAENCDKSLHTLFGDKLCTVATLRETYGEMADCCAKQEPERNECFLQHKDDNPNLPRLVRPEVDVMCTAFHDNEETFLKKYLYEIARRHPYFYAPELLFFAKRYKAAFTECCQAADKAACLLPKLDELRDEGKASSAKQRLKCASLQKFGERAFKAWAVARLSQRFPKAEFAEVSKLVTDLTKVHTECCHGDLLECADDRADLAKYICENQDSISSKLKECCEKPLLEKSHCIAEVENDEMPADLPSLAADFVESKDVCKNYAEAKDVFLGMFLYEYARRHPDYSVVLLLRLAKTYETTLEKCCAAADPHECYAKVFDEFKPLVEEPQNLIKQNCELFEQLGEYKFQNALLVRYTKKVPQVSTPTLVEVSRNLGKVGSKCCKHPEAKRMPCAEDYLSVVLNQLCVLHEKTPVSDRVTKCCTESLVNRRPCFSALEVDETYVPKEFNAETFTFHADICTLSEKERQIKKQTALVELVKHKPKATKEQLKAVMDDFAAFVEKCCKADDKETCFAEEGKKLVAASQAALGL

hydrolysis in aqueous solution ([1]; aqueous solution, 20°C): less than 1 % h^–1 | Albumin-binding half-life λ1/2 [2]: 5.1 h | drug bound to the albumin fraction ([3]; 100 µM, first scan (∼5–10 min after incubation)): ~50%
SMILES: C[O][Pt]([NH2])([NH2])([Cl])([Cl])[O]C(=O)NCCN1C(=O)C=CC1=O [Compound 7, (OC-6-44)-Diamminedichloridomethoxido[2-(2,5-dioxo-2,5-dihydro-1H-pyrrol-1-yl)ethylcarbamato]platinum(IV)]

changes in aqueous solution ([1]; over a period of 24 hours): no changes | protein binding ability ([3]; during 21 h): negligible protein binding ability | reduction by ascorbic acid, cisplatin-derived vs oxaliplatin-based [4]: reduced much faster | stability towards reduction, acetato vs methoxido ligand [4]: more stable
SMILES: CC(=O)[O][Pt]([NH2])([NH2])([Cl])([Cl])[O]C(=O)NCCN1C(=O)CCC1=O [Compound 10]

SMILES: O=C1[O][Pt]2([NH][C@@H]3CCCC[C@H]3[NH]2)[O]C1=O [oxaliplatin]
apoptotic cell fraction in tumors (CT-26 tumors): highest | adverse effects [5, 7]: very strong adverse effects | anticancer activity [5, 7]: widely ineffective | onset of activity ([5]; male BALB/c mice, i.v. twice a week, equimolar to 9 mg kg^–1 oxaliplatin): 8 days

SMILES: N.N.[Cl][Pt][Cl] [cisplatin]
Pt conc. in serum ([6]; Mouse #1, serum 24 h after single i.v. treatment): 48 µg/L | Pt conc. in serum ([6]; Mouse #2, serum 24 h after single i.v. treatment): 46 µg/L | Pt conc. in serum ([6]; Mouse #3, serum 24 h after single i.v. treatment): 43 µg/L | Pt conc. in serum ([6]; Mouse #4, serum 24 h after single i.v. treatment): 44 µg/L

Reference: article PMC5409245, “An albumin-based tumor-targeted oxaliplatin prodrug with distinctly improved anticancer activity in vivo” (Chemical Science, 2016)
